Test results published in patent US20230097992A1, “BIVALENT EGF FUSION TOXINS” (The Regents of the University of Colorado, a body corporate, priority 2020, published 2023).

Tests used:
[1] = test system: human EGFR-positive HNSCC cell line TU167; test: CellTiter-Glo Luminescent Cell Viability Assay, TU167; type: cell-based; details: read-out: IC50 to HNSCC cell lines (Erlotinib)
Procedure: FIG. 9 presents the data from in vitro efficacy analysis of the human EGF fusion toxins against human EGFR-positive HNSCC cell lines using CellTiter-Glo® Luminescent Cell Viability Assay (Promega) Y-axis: inhibition rate of the cell viability by determining the number of viable cells based on the quantification of the ATP present. X-axis: plated fusion toxin concentration. Cycloheximide (1.25 mg/mL) was used as a positive control. The negative control contained cells without fusion toxin. Data were from three individual experiments for each HNSCC cell line. Error bars indicate SD.
Y-axis: inhibition rate of the cell viability by determining the number of viable cells based on the quantification of the ATP present. […] Cycloheximide (1.25 mg/mL) was used as a positive control. […]
In vitro efficacy analysis of the human EGF fusion toxins (mEGF-IT and bEGF-IT) to the human HNSCC tumor cell lines was performed using CellTiter-Glo® Luminescent Cell Viability Assay (Promega Corporation, Madison, Wis.) as described previously (Zheng et al. (2017), Mol. Oncol. 11, 584-594, which is hereby incorporated by reference in its entirety). This cell viability assay measures the luminescence produced because of ATP production from metabolically active cells. […] The luminescence signals were recorded using BioTek Synergy LX Multi-Mode Reader.
IC50 was determined using nonlinear regression (curve fit) of Prism. […]

[2] = test system: HNSCC Cal27 tongue-orthotopic tumors; test: Tongue-orthotopic tumor-bearing NSG mouse model; type: in vivo, NSG mice; details: for Median survival time: Tongue orthotopic model, fusion toxin or DT390 50 μg/kg IP, erlotinib 20 mg/kg gavage, once daily for 10 days from day 4; for tongue SCC tumor volume versus mono-EGF-IT and DT390 groups: second cohort, euthanized 8 days after tumor cell inoculation
Procedure: FIGS. 7A-7C presents the data from two animal studies of in vivo efficacy analysis of the human EGF fusion toxins against tongue squamous cell carcinomas (SCCs) in NSG mice. FIG. 7A presents the data from in vivo efficacy analysis of the human EGF fusion toxins using human EGFR-positive HNSCC Cal27 tongue-orthotopic tumor-bearing NSG mouse model. Eight million human EGFR-positive HNSCC Cal27 cells were injected into the tongue on day 0. Mice were injected intraperitoneally (IP) with the EGF fusion toxin or DT390 at 50 μg/kg, starting on day 4, once daily for 10 consecutive days. […] The schedule of the fusion toxin and tumor cell injection is pictured in the schematic below the survival curve. The vertical arrows indicate the days on which the tumor cells or the fusion toxins were injected. *P<0.05; **P<0.01; ***P<0.001; ****P<0.0001; ns: not significant.
FIG. 7B presents the data from a further in vivo efficacy analysis of the human EGF fusion toxins. […] The mice were euthanized on day 8 after tumor cell injection when the first mouse in the DT390 group reached the end point. The photograph depicts tongue squamous cell carcinomas (SCCs) (circled by the black dotted lines). Scale bar: 1 cm. FIG. 7C presents the FIG. 7B tumor volume comparison of the treatment groups. *P<0.05; **P<0.01
HNSCC tumor cells were injected via the following routes: 1) Flank-xenograft solid tumor model: eight million human HNSCC Cal27 tumor cells were subcutaneously injected into the right flank at day 0. The tumor-bearing mice were randomly divided into the four experimental groups when the tumors were palpable at day 3. The tumor volume was measured using digital vernier calipers every 3 days and calculated according to the formula: volume (mm^3)=(length×width×width)/2. 2) Tongue-orthotopic solid tumor model: eight million human HNSCC Cal27 tumor cells in 50 μl DMEM were injected into the tongue at day 0 following isoflurane anesthesia and the tumor-bearing mice were randomly divided into the planned four experimental groups at day 3. 3) Experimental metastasis model: one million human HNSCC Cal27 tumor cells in 200 μl DMEM were intravenously injected at day 0 via tail vein and the tumor-bearing mice were randomly divided into the four experimental groups at day 3.
Mono-EGF-IT (mEGF-IT), bEGF-IT, or DT390 was intraperitoneally injected (IP) starting at day 4 at 50 μg/kg, once daily for 10 consecutive days. […] The injected animals were observed daily for signs and symptoms of illness and scored at least twice weekly based on the parameters as previously reported (Peraino et al. (2013), J. Immunol. Methods 398-399, 33-43, which is hereby incorporated by reference in its entirety; Wang et al., 2015). The animals were humanely euthanized when the score exceeded the limit or the animal lost more than 15% of its pre-injection body weight. In addition, to assess whether the fusion toxins are toxic to the animals, NSG mice injected with the fusion toxins only were also included as control.
To assess the in vivo efficacy of the human EGF fusion toxins to the xenograft tumors in the head and neck area, a tongue-orthotopic tumor-bearing NSG mouse model was used as a second efficacy model. Eight million HNSCC Cal27 cells were injected into the tongue at day 0. The EGF fusion toxins were injected intraperitoneally (IP) starting on day 4 at 50 μg/kg daily for 10 consecutive days. Since the resulting tongue-orthotopic tumors severely affected the animal's eating and drinking, animals were euthanized earlier. Therefore, the median survival prolongation was not as impressive as that observed in the flank-xenograft solid tumor-bearing NSG mouse model. […] To further characterize the effect of the EGF fusion toxins on tumor volume, the orthotopic tongue SCC model study was repeated, and the mice were euthanized 8 days after tumor cell inoculation.

[3] = test system: residual Cal27 tumor cells; test: CellTiter-Glo Luminescent Cell Viability Assay, residual Cal27 tumor cells; type: cell-based, human; details: residual Cal27 cells from flank xenografts at day 14 after bEGF-IT 50 μg/kg once daily for 10 days
Excerpt: FIGS. 13A-C present in vitro binding affinity and efficacy analysis of the bEGF-IT to the residual Cal27 tumor cells. FIG. 13A: Flow cytometry binding affinity analysis of the bEGF-IT to the residual Cal27 tumor cells. The data were representative of three individual experiments. FIG. 13B: KD determination of the bEGF-IT to the residual Cal27 tumor cells using flow cytometry and nonlinear least squares fit. FIG. 13C: In vitro efficacy analysis of the bEGF-IT to the residual Cal27 tumor cells using CellTiter-Glo® Luminescent Cell Viability Assay. bEGF-IT group (green line); Anti-murine PD-1 immunotoxin group as negative control (blue line). Data were from three individual experiments. Error bars indicate SD.
The tumor was removed from the sacrificed flank-xenograft solid tumor-bearing mice and washed with PBS twice in sterile manner. Then the tumor sample was cut into small pieces (approximately 1 mm^3) on the lid of a petri dish and washed with PBS. The tissue pellet was resuspended in DMEM tissue culture medium and cultured in the T25 flask. After several days of culture, the tissue residues were removed and the residual tumor cells were cultured as parent Cal27 tumor cell line.
It was hypothesized that the residual tumor cells were still sensitive to the human EGF fusion toxin treatment. […]

Compound: C#Cc1cccc(Nc2ncnc3cc(OCCOC)c(OCCOC)cc23)c1 [Erlotinib]
- IC50 [1]: 410 nM
- Median survival time [2]: 16.5 days
- tongue SCC tumor volume versus mono-EGF-IT and DT390 groups [2]: significantly smaller

Compound: Bi-EGF IT: DT390 joined by G4S to two human EGF domains linked by (G4S)3, C-terminal 6×His tag; SEQ ID NO: 10
- IC50 [3]: 0.0562 nM
- Median survival time [2]: 15 days
- tongue SCC tumor volume versus mono-EGF-IT and DT390 groups [2]: significantly smaller
